This is an account of results in PubChem BioAssay AID1033 (Sanford-Burnham Center for Chemical Genomics, 2008).

Broadly, the Kd is the equilibrium constant for the complex coming apart.

SMILES strings stand for the structures. Activity calls are given as the source filed them. The rule behind the calls is not given here.

Chaperone protein DnaK (Escherichia coli (strain K12)), sequence (P0A6Y8 whole entry, looked up): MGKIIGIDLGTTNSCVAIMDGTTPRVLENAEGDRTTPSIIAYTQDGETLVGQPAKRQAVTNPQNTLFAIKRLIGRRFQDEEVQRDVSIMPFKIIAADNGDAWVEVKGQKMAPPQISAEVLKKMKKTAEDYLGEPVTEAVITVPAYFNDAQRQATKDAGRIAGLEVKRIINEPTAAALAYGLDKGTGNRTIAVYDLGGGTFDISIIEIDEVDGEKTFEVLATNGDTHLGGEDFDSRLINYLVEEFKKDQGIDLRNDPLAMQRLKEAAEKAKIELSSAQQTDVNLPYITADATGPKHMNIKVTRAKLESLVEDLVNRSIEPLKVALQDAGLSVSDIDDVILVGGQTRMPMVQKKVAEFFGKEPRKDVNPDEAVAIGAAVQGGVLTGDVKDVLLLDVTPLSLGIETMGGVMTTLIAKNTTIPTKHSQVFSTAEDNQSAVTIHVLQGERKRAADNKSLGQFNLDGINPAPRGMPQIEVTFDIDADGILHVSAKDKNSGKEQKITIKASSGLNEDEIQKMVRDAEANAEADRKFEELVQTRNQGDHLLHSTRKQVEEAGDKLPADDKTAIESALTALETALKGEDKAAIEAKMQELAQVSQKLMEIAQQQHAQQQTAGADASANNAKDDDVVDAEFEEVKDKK

The experiment has as its target Chaperone protein DnaK (Escherichia coli (strain K12)) (UniProt P0A6Y8). The experiment is described as follows: E. coli DnaK SBD ligand binding – biophysical, NMR, chaperone (AID 1033). The settings on record: Purified DnaK SBD.
`COc1ccc(-c2oc3c(CC=C(C)C)c(O[C@@H]4O[C@H](CO)[C@@H](O)[C@H](O)[C@H]4O)cc(O)c3c(=O)c2O[C@@H]2O[C@@H](C)[C@H](O)[C@@H](O)[C@H]2O)cc1`: the Kd was > 4 mM (inactive).
Turning to `Cn1cnnc1Sc1ncnc(N)c1[N+](=O)[O-]`, the Kd was > 4 mM (inactive).
Regarding `CC(=O)Nc1cc(N2C(=O)C=CC2=O)ccc1Cl`, the Kd was > 4 mM (inactive).
Under `COc1ccc(C)cc1-n1c(-c2ccncc2)n[nH]c1=S` stands > 4 mM (inactive).
Under `CC1(C)C=CC(=O)[C@@]2(C)C1CC(=O)[C@]1(C)C2CC[C@@]2(C)[C@H](c3ccoc3)OC(=O)C3OC321` (some centres not stated) stands > 4 mM (inactive).
On to `O=C(Nc1ccc(N2CCCC2=O)cc1)c1cccc(F)c1`, for which the Kd is > 4 mM (inactive).
Under `NC(=O)C1CCN(CN2C(=O)c3ccccc3C2=O)CC1` stands > 4 mM (inactive); under `COc1ccc(-c2nnsc2N)cc1`, > 4 mM (inactive); under `O=c1cccc2n1CC1CC2CN2CCCC[C@@H]12` (some centres not stated), > 4 mM (inactive).
For the compound `NCC(N)C(=O)c1ccccc1` (configuration not stated), the Kd is > 4 mM (inactive).
Under `O=C(NCc1ccco1)c1nc2ncccn2n1` stands > 4 mM (inactive); under `NC(CC(=O)O)c1ccccc1` (configuration not stated), > 4 mM (inactive).
Under `O=C(O)c1ccnc2ccccc12` stands > 4 mM (inactive); under `CC1(C(=O)O)CC2C=CC1C2` (configuration not stated), > 4 mM (inactive); under `CC(C)=CCC1=C(O)c2ccccc2C(=O)C1=O`, > 4 mM (inactive).
Regarding `CC[C@@]1(O)C(=O)OCc2c1cc1n(c2=O)Cc2cc3ccccc3nc2-1`, the Kd was > 4 mM (inactive).
Under `Nc1ccc(OC(F)(F)F)cc1` stands > 4 mM (inactive).
Under `O=C(Nc1cccc2cccnc12)c1cccnc1` stands > 4 mM (inactive); under `COC(=O)C1=CO[C@@H](O[C@@H]2O[C@H](CO)[C@@H](O)[C@H](O)[C@H]2O)[C@@H]2[C@@H](C)[C@@H](O)C[C@H]12`, > 4 mM (inactive); under `OCn1nnn(-c2ccccc2)c1=S`, > 4 mM (inactive).
For `COc1cccc(Oc2ccc(N)cc2)c1`, the Kd is > 4 mM (inactive).
Regarding `Cc1cc(C(=O)Nc2cccnc2)cs1`, the Kd was > 4 mM (inactive).
Regarding `Cc1nc2nc(Cc3ccccc3)nn2c(C)c1Cl`, the Kd was > 4 mM (inactive).
Under `COC(=O)Nc1nc2c(C)cccc2s1` stands > 4 mM (inactive); under `NC(=S)NC(=O)CN1C(=O)c2ccccc2C1=O`, > 4 mM (inactive).
Under `CCOC(=O)C1CCNCC1` stands > 4 mM (inactive).
Under `CN1CCN(c2ccc(C(=O)O)cc2)CC1` stands > 4 mM (inactive); under `Nc1cccc(C(=O)c2ccccc2)c1`, > 4 mM (inactive); under `Cc1cc(C)c(C#N)c(N2CCCC2)n1`, > 4 mM (inactive).
For `O=C1N=C(N2CCOCC2)S/C1=C\c1cccnc1`, the Kd was > 4 mM (inactive).
Under `NS(=O)(=O)c1ccc(NC(=O)C(F)(F)F)cc1` stands > 4 mM (inactive); under `N[C@@H](CCC(=O)N[C@@H](CS)C(=O)NCC(=O)O)C(=O)O`, > 4 mM (inactive); under `CCCN1CCC(N2CCC(O)CC2)CC1`, > 4 mM (inactive).
On to `Cc1cc(C)n2nc(NCc3ccccc3)nc2n1`, for which the Kd is > 4 mM (inactive).
As to `Cn1cnc2c(=O)[nH]cc([N+](=O)[O-])c21`, the Kd was > 4 mM (inactive).
Under `S=c1[nH]ncn1-c1ccccc1` stands > 4 mM (inactive); under `Cn1cc(Cl)c(C(=O)NC2CCCCCC2)n1`, > 4 mM (inactive).
Under `Cc1cc(NC(=O)c2ccccc2C(=O)O)no1` stands > 4 mM (inactive); under `O=C1NC(=S)NC(=O)C1=Cc1ccncc1`, > 4 mM (inactive); under `COC(=O)NNc1ncnc(N)c1[N+](=O)[O-]`, > 4 mM (inactive).
Under `Nc1ccc2nsnc2c1` stands > 4 mM (inactive).
Take `O=C(Nc1c[nH]c(=O)[nH]c1=O)c1ccccc1F`: the Kd is > 4 mM (inactive).
Under `CC(=O)OC[C@@]1(O)C[C@@]23CCC4c5ccoc5CC[C@]4(C)C2CC[C@@H]1C3` (some centres not stated) stands > 4 mM (inactive).
Under `Nc1ccc(N2CCCCC2)cc1` stands > 4 mM (inactive); under `O=C(O)Cc1n[nH]c(=O)c2ccccc12`, > 4 mM (inactive); under `Cn1c(=O)n(-c2cccc(Cl)c2)c(=O)n1C`, > 4 mM (inactive).
Under `CC(=O)Oc1c2c(c3c(c1CC=C(C)C)O[C@]14C(=C[C@@H]5CC1C(C)(C)OC4(C/C=C(\C)C(=O)O)C5=O)C3=O)OC(C)(CCC=C(C)C)C=C2` (some centres not stated) stands > 4 mM (inactive); under `O=[N+]([O-])c1cccc2c1nnn2C(CO)OCCO` (configuration not stated), > 4 mM (inactive); under `O=C1CCC(=O)N1c1cccnc1`, > 4 mM (inactive).
Regarding `O=C(O)CSCC(=O)Nc1cccc(O)c1`, the Kd was > 4 mM (inactive).
Under `O=c1[nH]nnc2sc3c(c12)CCCC3` stands > 4 mM (inactive).
Under `COc1cc(OC)c2c(c1Cl)OC1(C2=O)C(O)=CC(=O)CC1C` (configuration not stated) stands > 4 mM (inactive); under `Cc1nc(-c2ccc(C(=O)N3CCOCC3)cc2)cs1`, > 4 mM (inactive).
Under `O=C1c2cccc3cc(S(=O)(=O)O)cc(c23)C(=O)N1O` stands > 4 mM (inactive); under `O=C(NCCO)NC(=S)c1ccccc1`, > 4 mM (inactive).
Consider `O=C(NC(=S)NN1CCOCC1)c1cccs1`, for which the Kd is > 4 mM (inactive).
`Nc1nnc(COc2cccc(C(F)(F)F)c2)s1`: the Kd was > 4 mM (inactive).
Under `Cn1c([O-])c([N+](C)(C)C)c(=O)n(C)c1=O` stands > 4 mM (inactive).
Under `CCOC(=O)CC1NCCNC1=O` (configuration not stated) stands > 4 mM (inactive).
Regarding `Cc1noc(C)c1C(=O)N1CCN(c2ncccn2)CC1`, the Kd was > 4 mM (inactive).
Under `Cc1ccc2nc(NC(=O)CN3CCOCC3)sc2c1` stands > 4 mM (inactive); under `CC(C)(C#N)O[C@@H]1O[C@H](CO)[C@@H](O)[C@H](O)[C@H]1O`, > 4 mM (inactive); under `O=C1CSC(=Nc2cccc(C(F)(F)F)c2)N1`, > 4 mM (inactive).
Under `O=C(NC1=NCCS1)c1ccc2snnc2c1` stands > 4 mM (inactive); under `COc1ccc(/C=C2\SC(N)=NC2=O)cc1`, > 4 mM (inactive); under `Nc1ncnc(NCc2cccnc2)c1[N+](=O)[O-]`, > 4 mM (inactive).
Under `NCCNC(=S)Nc1ccccc1` stands > 4 mM (inactive); under `Cc1nccc2c1[nH]c1ccccc12`, > 4 mM (inactive); under `O=S(=O)(Nc1cccc2cn[nH]c12)c1ccc(F)cc1`, > 4 mM (inactive).
Take `NC(=O)CCS(=O)(=O)CCN1CCOCC1`: the Kd was > 4 mM (inactive).
Turning to `CC(C)=CC(=O)Nc1ccc2c(c1)OCO2`, the Kd was > 4 mM (inactive).
Regarding `O=C(O)CC1C(=O)NCCN1Cc1ccccc1` (configuration not stated), the Kd is > 4 mM (inactive).
Under `O=c1c2ccccc2nc(-c2ccco2)n1-c1nccs1` stands > 4 mM (inactive); under `CC(CO)NC(=O)C1C=C2c3cccc4[nH]cc(c34)C[C@H]2N(C)C1` (some centres not stated), > 4 mM (inactive); under `O=C1CC(C(=O)O)c2ccccc21` (configuration not stated), > 4 mM (inactive).
Under `COC(=O)Nc1ccc2ncn(C)c(=O)c2c1` stands > 4 mM (inactive); under `COc1ccc2c(c1)OC[C@@H](Cc1ccc(OC)c(OC)c1)[C@H]2O`, > 4 mM (inactive).
Under `Cn1c(CN2CC(c3ccccc3)CC2=O)n[nH]c1=S` (configuration not stated) stands > 4 mM (inactive); under `Cn1cnc2cc(NC(=O)c3ccco3)ccc21`, > 4 mM (inactive).
As to `O=C(O)C(CO)c1ccccc1` (configuration not stated), the Kd is > 4 mM (inactive).
For the compound `Cc1cccc(NC(=O)c2ccccc2C(=O)O)c1`, the Kd is > 4 mM (inactive).
Under `CN1CCC(N2CCOCC2)CC1` stands > 4 mM (inactive); under `CCSc1nnc(-c2ccccc2N)c(=O)[nH]1`, > 4 mM (inactive); under `CC(=O)Nc1cc(C(F)(F)F)ccc1N1CCOCC1`, > 4 mM (inactive).
Under `CCOc1ccc(Cl)cc1S(=O)(=O)N1CCCC1` stands > 4 mM (inactive); under `O=C(NCC1CCNCC1)c1ccccn1`, > 4 mM (inactive).
Under `O=c1cnnc(SCCc2ccccc2)[nH]1` stands > 4 mM (inactive); under `Nc1c(N2CCCC2)cnn(-c2ccccc2)c1=O`, > 4 mM (inactive); under `CNC(=O)C1CCCN(S(C)(=O)=O)C1` (configuration not stated), > 4 mM (inactive).
`C=CCNC(=O)c1nn2cccnc2c1Cl`: the Kd was > 4 mM (inactive).
Under `O=C(O)C1CN2CCC1CC2` (configuration not stated) stands > 4 mM (inactive); under `O=c1[nH]c(=S)[nH]c2c1CCC2`, > 4 mM (inactive); under `Cn1c(=O)c2c(n(C)c1=O)=NC1(CCCCC1)N=2`, > 4 mM (inactive).
Under `O=C(NC(=S)NCCO)c1ccccc1` stands > 4 mM (inactive); under `CC1(C)C(=O)[C@@H]2O[C@@H]2[C@@]2(C)C1C[C@@H](O)[C@]1(C)C2CC[C@@]2(C)[C@H](c3ccoc3)OC(=O)C3OC321` (some centres not stated), > 4 mM (inactive).
Under `COc1cccc(/C=C/C(=O)O)c1C(C)C` stands > 4 mM (inactive).
`O=S1(=O)CCC(NC(=S)Nc2ccccn2)C1` (configuration not stated): the Kd is > 4 mM (inactive).
Under `COC(=O)c1cc(-c2c[nH]c3ccccc23)n[nH]1` stands > 4 mM (inactive).
Under `COc1ccc2c(c1OC)C(=O)O[C@H]2[C@H]1c2cc3c(cc2CCN1C)OCO3` stands > 4 mM (inactive).
Under `CC(C)C(=O)NCC(c1ccco1)N1CCOCC1` (configuration not stated) stands > 4 mM (inactive).
For `Cc1nnc(NCc2cccnc2)[nH]c1=O`, the Kd was > 4 mM (inactive).
Under `Nc1cc(F)ccc1-n1ccnc1` stands > 4 mM (inactive).
